Data on 1 compound can be found in patent EP3355943B1, “METHODS AND SYSTEMS FOR TREATING MEDICAL DEVICES AND FLUIDS” (Ethicon, Inc., priority 2015, dated 2017).

Common to all, as to format: biochemical
The nature of experiment [1]: Suture testing in ethanol, cyclohexane, isopropanol with 1% calcium stearate. The settings on record: for Change in Endotoxin Level (%): vs. Suture-1 not submerged (68.1 EU). As for the experimental part:
Similarly to the testing above, an absorbable suture of the same type, similarly contaminated, was exposed to CaSt in three solvents (ethanol, cyclohexane, isopropanol). The suture was then tested for LPS.
Sutures used were 27 inch long pieces of absorbable lactide-glycolide sutures. […] 7 strands of suture were placed in tubing with endotoxin solution for 10 minutes at a time. The sutures were dried for 20 minutes and then placed in round bottom tubes. […] 1 suture was placed in each tube and vortexed in this solution for approximately 10 seconds. The sutures were removed and allowed to dry for 20 minutes and then placed in round bottom tubes. This was done for 6 sutures. 1 piece of suture, serving as the control, was not submerged in any solutions and placed in test tubes. 3 mL of LAL reagent water was added to each test tube, vortexed vigorously, and then placed in a hot water bath at 37°C for 1 hour. They were then removed, vortexed vigorously, diluted, and tested on the MCS system. […] Results of testing in ethanol, cyclohexane, isopropanol

Experiment [2] is described as follows: Suture testing in aqueous suspension of CaSt: endotoxin detected on LPS-contaminated suture. As for the experimental part: Treatment of sutures in aqueous suspensions of CaSt was performed as follows: Suture used was VICRYL® (Polyglactin 910) suture made of a copolymer made from 90% glycolide and 10% L-lactide, Size 1, 27 inch pieces. […] Endosafe LAL Reagent Water (LRW) was used, manufactured by Charles River Laboratories, Charleston S.C..
Eight strands of suture were placed in tubing with LPS (endotoxin) solution for 10 minutes at a time. The sutures were dried for 20 minutes and then placed in round bottom tubes. Suspensions of 5% by weight CaSt in LAL Reagent Water were prepared. (0.5 g CaSt in 10 mL LRW). One suture was placed in each tube and vortexed in this solution for approximately 10 seconds. The sutures were removed and allowed to dry for 20 minutes and then placed in round bottom tubes. This was done for 3 sutures. Three pieces of suture, serving as the control, were not submerged in any solutions and placed in test tubes. 3 mL of LAL reagent water was added to each test tube, vortexed vigorously for 1 minute, and then placed in a hot water bath at 37°C for 1 hour. They were then removed, vortexed vigorously for 1 minute, diluted, and tested on the MCS system. […] These were also tested for endotoxin on the MCS. Table 4. Detection of LPS after adding CaSt to test tubes containing water spiked with LPS

The nature of experiment [3]: Detection of LPS in water in presence of CaSt and EDTA and Tween 20. The settings on record: 5mL, 8330 EU spiked; for Percent detected Endotoxin: 60 min. As for the experimental part:
Further testing was performed with addition of EDTA and Polysorbate 20 reagents to verify permanent removal of LPS/endotoxin activity, by adding EDTA and Polysorbate 20 to the extraction solutions to test for potential recovery of endotoxin activity when introduced to these two substances.
The testing was performed in aqueous solutions with added EDTA and Polysorbate 20, with suspended CaSt present in some solutions in varying quantities. […] The tubes were vortexed for 1 minute and placed in a 37C bath for 1 hour. The tubes were removed from the bath and again vortexed for 1 minute. The solutions were diluted and tested for endotoxin using the Kinetic Chromogenic Method for Endotoxin Quantitation, Charles River Laboratories, Charleston S.C. […] These samples were rigorously vortexed and tested using the Kinetic Chromogenic Method for Endotoxin Quantitation, Charles River Laboratories, Charleston S.C. […]

The mark [4] stands for this setting: suture submerged in Cyclohexane w/1% Calcium Stearate (0.0858 g).
The mark [5] stands for this setting: suture submerged in Ethanol w/1% Calcium Stearate (0.0827 g).
The mark [6] stands for this setting: suture submerged in Isopropanol w/1% Calcium Stearate (0.0841 g).
[7] abbreviates: Weight of Calcium Stearate 0.007 g.
Where [8] appears, read: Weight of Calcium Stearate 0.018 g.
Where [9] appears, read: Weight of Calcium Stearate 0.028 g.

Turning to `CCCCCCCCCCCCCCCCCC(=O)O` [Calcium Stearate], in experiment [1] (CaSt 1% suspension in ethanol, cyclohexane, isopropanol), the “LPS activity decreased by” value is 75-95%. Moreover, the “Endotoxin Detected (EU)” value is reported as 4.02 EU in experiment [1] (setting [4]); 15.06 EU in experiment [1] (setting [5]); 16.59 EU in experiment [1] (setting [6]); less than 1.0 EU in experiment [2] (Water with 5% Calcium Stearate solution tested after suture removal (samples 4-6)); 3995 EU in experiment [3] (setting [7]); 1487.5 EU in experiment [3] (setting [8]). Also, in experiment [3] (setting [9]), the “Endotoxin Detected (EU)” value came to 235 EU. The “Change in Endotoxin Level (%)” value in experiment [1] (setting [4]) is on record as -94.1%; in experiment [1] (setting [5]), -77.9%; in experiment [1] (setting [6]), -75.6%. In addition, the “Average Endotoxin Detected (EU)” value in experiment [2] (suture submerged in LAL Water w/ 5% Calcium Stearate, samples 4-6) was 3.27 EU. Moreover, in experiment [2] (suture submerged in LAL Water w/ 5% Calcium Stearate, vs. sutures not submerged (84 EU)), the “Average Change in Endotoxin Level (%)” value is -96.1%. Moreover, the “Percent detected Endotoxin” value in experiment [3] (setting [7]) turned out to be 48.0%; in experiment [3] (setting [8]), 17.9%; in experiment [3] (setting [9]), 2.8%.
